The subject of test [1] is U87MG pLVX-IDH2 R140Q-neo cells. Briefly: U87MG pLVX-IDH2 R140Q-neo cell based assay (2-HG by LC-MS). The conditions noted are these: Homo sapiens, U-87 MG. Here is the method: U87MG pLVX-IDH2 R140Q-neo cells are grown in T125 flasks in DMEM containing 10% FBS, 1× penicillin/streptomycin and 500 μg/mL G418. They are harvested by trypsin and seeded into 96 well white bottom plates at a density of 5000 cell/well in 100 μl/well in DMEM with 10% FBS. No cells are plated in columns 1 and 12. Cells are incubated overnight at 37° C. in 5% CO2. The next day compounds are made up at 2× concentration and 100 ul are added to each cell well. The final concentration of DMSO is 0.2% and the DMSO control wells are plated in row G. The plates are then placed in the incubator for 48 hours. At 48 hours, 100 ul of media is removed from each well and analyzed by LC-MS for 2-HG concentrations. The cell plate is placed back in the incubator for another 24 hours. At 72 hours post compound addition, 10 mL/plate of Promega Cell Titer Glo reagent is thawed and mixed. The cell plate is removed from the incubator and allowed to equilibrate to room temperature. Then 100 ul of reagent is added to each well of media. The cell plate is then placed on an orbital shaker for 10 minutes and then allowed to sit at room temperature for 20 minutes. The plate is then read for luminescence with an integration time of 500 ms to determine compound effects on growth inhibition.

In another test the target is T1, IDH2 R140Q (Homo sapiens, UniProt P48735, R140Q).
T1 sequence (P48735 40-452 R140Q): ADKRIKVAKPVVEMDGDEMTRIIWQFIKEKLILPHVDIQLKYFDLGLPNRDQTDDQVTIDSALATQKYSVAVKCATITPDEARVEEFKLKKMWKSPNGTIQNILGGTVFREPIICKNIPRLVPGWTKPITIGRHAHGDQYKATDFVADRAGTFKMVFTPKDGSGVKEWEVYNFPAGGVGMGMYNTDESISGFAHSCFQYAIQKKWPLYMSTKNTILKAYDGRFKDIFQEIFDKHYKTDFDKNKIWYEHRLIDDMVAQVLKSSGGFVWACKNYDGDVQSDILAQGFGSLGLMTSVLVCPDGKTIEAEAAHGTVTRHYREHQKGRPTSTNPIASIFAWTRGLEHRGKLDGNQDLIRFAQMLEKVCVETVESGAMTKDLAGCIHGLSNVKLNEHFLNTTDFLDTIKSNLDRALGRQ
Briefly: IDH2 R140Q enzymatic assay (cofactor depletion, diaphorase/resazurin). It counts as biochemical. The conditions noted are these: 16 hours preincubation time. On the technique in general: Alamar Blue is a resazurin reagent that responds to reducing activity.

pIC50: −log10 of the molar value.

As a reminder, the pIC50 is the IC50 on a negative log10 scale, so that one unit is a factor of ten. On to `Nc1nc(Nc2ccnc(C(F)(F)F)c2)nc(-c2cccc(C(F)(F)F)n2)n1` [Compound 378, 6-(6-(trifluoromethyl)pyridin-2-yl)-N2-(2-(trifluoromethyl)pyridin-4-yl)-1,3,5-triazine-2,4-diamine], for which the pIC50 (in test [1]; against IDH2 R140Q) was above 7.30 each time.

The values are drawn from US9724350B2, “N,6-bis(aryl or heteroaryl)-1,3,5-triazine-2,4-diamine compounds as IDH2 mutants inhibitors for the treatment of cancer” (Agios Pharmaceuticals, Inc., priority 2013, dated 2017).
